Here are results for five compounds from article PMC4717575, “Characterization of a cold-active and salt tolerant esterase identified by functional screening of Arctic metagenomic libraries” (BMC Biochemistry, 2016).

This assay concerns T1, Lip3.
T1 construct: catalytic triad Ser150, Asp207, His267; primers encode N-terminal MNNYIID and C-terminal CLKSLL before the His tag
Put plainly: p-nitrophenol release at […] nm, Lineweaver-Burk. The assay is classed as biochemical, uncultured bacterium. To be noted: 0.1 M Tris-HCl pH 8.0, 35 °C, 3 % acetonitrile.
`CC(=O)Oc1ccc([N+](=O)[O-])cc1` [pNP-acetate]: the “K M (M.10^-3)” value stood at 2.38 ± 0.56 M∙10^−3.

In the case of `CCCC(=O)Oc1ccc([N+](=O)[O-])cc1` [pNP-butanoate], the “K M (M.10^-3)” value came out at 1.05 ± 0.16 M∙10^−3.

Turning to `CCCCCCCCCC(=O)Oc1ccc([N+](=O)[O-])cc1` [pNP-decanoate], the “K M (M.10^-3)” value was found to be 1.03 ± 0.12 M∙10^−3.

Regarding `CCCCCCCC(=O)Oc1ccc([N+](=O)[O-])cc1` [pNP-octanoate], the “K M (M.10^-3)” value amounted to 0.36 ± 0.04 M∙10^−3.

Consider `CCCCC(=O)Oc1ccc([N+](=O)[O-])cc1` [pNP-pentanoate], for which the “K M (M.10^-3)” value came out at 1.52 ± 0.20 M∙10^−3.
